# Results: patent US11612583B2, “Disease modifying methods for treating neurodegenerative diseases using nootropic agents” (priority 2018, dated 2023)
# “Also recorded” adds a separate entry of the source.
# Columns and labels:
# [1] = system: primary cortical neurons treated with rotenone; experiment: Oxygen consumption rates (XF24e Extracellular Flux Analyzer) in rotenone-treated primary cortical neurons; type: cell-based, mouse
# Procedure: Rotenone (1.26 mM stock, Sigma, Cat #R8875) was freshly prepared in water prior to each use. Stocks of rotenone were maintained in the dark at −20° C. for up to 6 months. Rotenone was used at 65 μM for neuroblastoma cells and at 65 nM for primary cortical neurons for 4-6 hours to induce oxidative and autophagic stress.
# Forskolin (Coleus forskohlii, >98% HPLC, Sigma Aldrich) was prepared in DMSO as 5 mg/ml stocks (stable for up to 6 months if kept in the dark and stored in −20° C. until ready to use). On the day of the experiment, the forskolin aliquot was thawed and cells were treated once with forskolin at a concentration of 1 to up to 10 μM of forskolin in complete media for treating primary cortical neurons or for intraperitoneal administration of PINK1 knockout mice or PINK1 knockout rats.
# Rotenone-treated primary neurons were then exposed to 250 μM dibutyryl cyclic AMP (dbt-cAMP) or with the parental or water-soluble form (NKH477) of Forskolin (6.5 μM-8.5 μM, 24 hrs). The basal oxygen consumption rates (OCRs), a proxy for mitochondrial function, were analyzed by using an XF24^e Extracellular Flux Analyzer (Agilent Technologies). The maximal oxygen consumption rates (OCRs), a proxy for maximal buffering capacity of mitochondrial function, were also analyzed by using an XF24^e Extracellular Flux Analyzer in primary cortical neurons treated with 1 μM FCCP, an ionophore that acts as a mitochondrial uncoupler.
# [2] = system: primary cortical neurons treated with rotenone; experiment: Image-based analysis of mitochondrial content in dendrites (MAP2B/TOM20 immunostaining); type: cell-based, mouse; settings: after rotenone 65 nM; Forskolin/NKH477 6.5 μM-8.5 μM or 250 μM dbt-cAMP; FIG. 4
# Text: The rotenone-treated neurons were also studied by image-based analyses of mitochondrial content in dendrites from primary cortical neurons immunostained for dendrites (MAP2B) and for mitochondria (TOM20).
# [3] = system: primary cortical neurons treated with rotenone; experiment: Extracellular acidification rates (ECARs), proxy for glycolysis, in rotenone-treated primary cortical neurons; type: cell-based, mouse; settings: after rotenone 65 nM 24 hours, 6.5 μM-8.5 μM, FIG. 3
# Procedure: Rotenone (1.26 mM stock, Sigma, Cat #R8875) was freshly prepared in water prior to each use. Stocks of rotenone were maintained in the dark at −20° C. for up to 6 months. […]
# The extracellular acidification rates (ECARs), a proxy for glycolysis, were also assessed by using an XF24^e Extracellular Flux Analyzer in primary neurons.
# PINK1-KO rats = experiment: Tyrosine hydroxylase immunofluorescence in midbrain slices of PINK1-KO rats; type: in vivo, rat; settings: female PINK1-KO rats; intraperitoneal Forskolin 1.6 mg/kg with or without Noopept 0.05 μg/kg; FIG. 13
# Procedure: Wild-type (PINK1+/+) or PINK1 knockout (PINK1−/−) rats were treated with intraperitoneal injections of DMSO control or of Forskolin (1.6 mg/kg body weight) once every 2 days for two doses followed by co-administration with Noopept (0.05 μg/kg) for three more doses (once every two days) for up to a total treatment time of 10 days. At the end of each treatment, a battery of motor tests were performed in vehicle-treated or WT and PINK1-KO rats treated with compounds to analyze for muscle strength in hind legs by using a grip strength analyzer. In addition, muscle coordination and balance were assessed by subjecting the rats to cross a 1-meter, tapered beam balance (2 cm width) for up to three trials per animal. Another group of wild-type and PINK1-KO rats were sacrificed, and intracardially perfused with saline followed by 4% formaldehyde. Midbrain slices from wild-type and PINK1-KO rats were immunostained for tyrosine hydroxylase (TH, purple) to identify midbrain dopamine neurons. […] (*:p<0.05 vs. WT/vehicle, **:p<0.05 vs. PINK1-KO/vehicle, One-Way ANOVA, Tukey's test, N=4-7 rats per group).
smiles,measurement,setting,value
C=C[C@@]1(C)CC(=O)[C@]2(O)[C@@]3(C)[C@@H](O)CCC(C)(C)[C@@H]3[C@H](O)[C@H](OC(C)=O)[C@@]2(C)O1 [Forskolin],spare respiratory capacity (Maximal OCRs-Baseline OCRs),"[1]; after rotenone 65 nM 24 hours, 6.5 μM-8.5 μM, 24 hrs, 1 μM FCCP, FIG. 2",completely restored; also recorded: significantly restored
same,baseline mitochondrial respiration (basal OCRs),"[1]; after rotenone 65 nM 24 hours, Forskolin or NKH477 6.5 μM-8.5 μM, 24 hrs, FIG. 1",partially or completely restored; also recorded: significantly restored
same,protection against rotenone-mediated neurodegeneration,[1]; concentrations of Forskolin greater than 12.5 μM,did not confer significant protection
same,concentration of maximal effects on protection against loss of neuronal metabolism (oxidative phosphorylation and glycolysis),"[1]; rotenone-treated primary neurons, bimodal",about 10 μM
same,mitochondrial content in dendrites (% of dendrites occupied by mitochondria),[2],reversed the loss of mitochondria within dendrites; also recorded: completely blocked; also recorded: significantly restored
same,glycolysis (baseline ECARs),[3],completely restored normal glycolytic function; also recorded: significantly restored
same,substantia nigra/midbrain dopamine neurons (integrated density of TH immunofluorescence),PINK1-KO rats,completely reverses the loss of midbrain dopamine neurons; also recorded: significantly reversed neurodegeneration
